Common to all, as to assay: NCI anticancer screen, dose series, 48 h
In experiment [1] the test system is CCRF-CEM leukemia.
Experiment [2] relates to EKVX NSCLC.
The subject of experiment [3] is HCC-2998 colon.
In experiment [4] the test system is HCT-116 colon.
The test system of experiment [5] is HCT-15 colon.
For experiment [6], the system named is HOP-62 NSCLC.
For experiment [7], the system named is HOP-92 NSCLC.
The test system of experiment [8] is IGROV1 ovarian.
Experiment [9] has as its system LOX IMVI melanoma.
For experiment [10], the system named is M14 melanoma.
The test system of experiment [11] is NCI-H23 lung.
The test system of experiment [12] is NCI-H460 lung.
Experiment [13] has as its system NCI-H522 lung.
The subject of experiment [14] is OVCAR-4 ovarian.
The test system of experiment [15] is SF-295 CNS.
For experiment [16], the system named is SF-539 CNS.
Experiment [17] concerns U251 CNS.
Experiment [18] deals with UACC-257 melanoma.
Experiment [19] has as its system SR leukemia.

The source of these data is PubChem BioAssay (NCI).

“And” between values parts separate entries of the source, which are not always exact repeats. Identical values can stand only once.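 Tested at 5 concentrations; 48 h exposure; 96-well plates; endpoints linearly interpolated, else capped at highest concentration. TGI denotes the concentration required for complete inhibition of growth.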 Some results are limits rather than exact numbers.

For `COc1ccc(N[C@H](CS(=O)c2ccc(C)cc2)C(F)(F)C(F)(F)F)cc1` (some centres undefined), the TGI in experiment [1], in experiment [2], in experiment [3], in experiment [4], in experiment [5] and in experiment [6] was > 100 µM in each case. Further, the TGI was 64.5 µM in [7]; > 100 µM in [8]; > 100 µM in experiment [9]; > 100 µM in experiment [10]; > 100 µM in experiment [11]; > 100 µM in [12]. Moreover, the TGI in experiment [13], in [14], in [15], in experiment [16], in [17] and in experiment [18] was > 100 µM in each case.

For `O=C(/C=C(\Nc1ccccc1O)c1ccccc1)C(=O)NC12CC3CC(CC(C3)C1)C2`, the TGI in experiment [1], in experiment [2], in [3], in experiment [5], in experiment [6] and in [8] was > 10 µM in each case. Besides, the TGI in [9], in experiment [10], in [11], in experiment [12], in experiment [13] and in experiment [14] was > 10 µM throughout. Also, the TGI in experiment [15], in experiment [16], in [19], in [17] and in [18] was > 10 µM throughout.

`COC(=O)/C=C1/N=C(N(C)/N=C/c2ccccc2)NC1=O`: the TGI in [1], in [2], in [3], in [4], in [5] and in [6] was > 100 µM throughout. Moreover, the TGI in experiment [8], in experiment [9], in [10], in experiment [11], in [12] and in experiment [13] was > 100 µM in each case. The TGI in [14], in experiment [15], in [16], in experiment [19] and in experiment [18] was > 100 µM throughout.

Consider `COc1ccccc1S(=O)Nc1ccccc1` (centres undefined), for which the TGI in experiment [1], in experiment [2], in experiment [3], in experiment [4], in [5] and in experiment [6] was > 100 µM throughout. Further, the TGI in experiment [8], in [9], in experiment [11], in experiment [12], in [13] and in experiment [14] was > 100 µM throughout. For the same compound, the TGI in [15], in experiment [16], in experiment [19], in experiment [17] and in experiment [18] was > 100 µM throughout.

For `N=C(N)n1[nH]c2c(c1=O)CCCC2`, the TGI in experiment [1], in experiment [2], in [3], in [4], in experiment [5] and in experiment [6] was > 100 µM each time. For the same compound, the TGI in experiment [8], in experiment [9], in experiment [10], in experiment [11], in [12] and in experiment [13] was > 100 µM in each case. Moreover, the TGI in experiment [14], in [15], in experiment [16], in experiment [19], in experiment [17] and in experiment [18] was > 100 µM throughout.

As for `COc1ccc(-n2c(C)nc3ccc(NC4OCC(O)C(O)C4O)cc3c2=O)cc1` (centres undefined), the TGI in [2] is > 100 µM; in experiment [3] it was > 100 µM; in experiment [4], 40.4 µM and 39.3 µM; in experiment [5], 65.8 µM and 80.8 µM; in [6], > 100 µM; in experiment [8], > 100 µM. Further, the TGI in experiment [9] was 42.6 µM and 50.8 µM; in experiment [11], > 100 µM; in experiment [12] it was > 100 µM; in experiment [13], 72 µM and 55 µM; in experiment [14] it was > 100 µM; in experiment [15] it was > 100 µM. Further, the TGI in experiment [19] is 68.4 µM and 60.4 µM; in experiment [17], > 100 µM; in [18] it was > 100 µM.

For `CN(C)CCNC(=O)c1cccc2nc3cccc(F)c3nc12`, the TGI came to 10.4 µM in [1]; 6.16 µM in experiment [2]; 4.31 µM in [3]; 4.56 µM in experiment [4]; 5.77 µM in [5]; 8.55 µM in experiment [6]. Moreover, the TGI in experiment [7] came to 3.63 µM; in [8], 9.67 µM; in experiment [9], 2.24 µM; in experiment [10], 4.58 µM; in experiment [11], 5.17 µM; in experiment [12], 2.73 µM. Also, the TGI in experiment [13] was determined as 2.74 µM; in [14], 4.83 µM; in experiment [15] it was 6.79 µM; in experiment [16], 7.7 µM; in experiment [17] it was 6.61 µM; in experiment [18], 3.86 µM.

As for `Cc1ccc(CS(=O)(=O)C/N=c2\sc3ccccc3nc2/C=C(\O)c2ccc(Cl)cc2)cc1`, the TGI in experiment [3], in experiment [4], in [5], in experiment [6], in [7] and in [8] was > 10 µM each time. The TGI in experiment [9], in [10], in [11], in [13], in [14] and in experiment [15] was > 10 µM in each case. The TGI in experiment [16], in experiment [19], in [17] and in experiment [18] was > 10 µM throughout.

For the compound `COc1ccc(C2ON(c3ccccn3)CC=C2C)cc1` (centres undefined), the TGI in experiment [1], in experiment [2], in [3], in [5], in experiment [6] and in experiment [8] was > 100 µM in each case. The TGI in experiment [9], in experiment [10], in experiment [11], in [12], in experiment [13] and in experiment [14] was > 100 µM throughout. The TGI in experiment [15], in [16], in experiment [19], in [17] and in experiment [18] was > 100 µM throughout.

As to `COC(=O)NN=C(c1ccc(Cl)cc1)c1ccc(Cl)cc1`, the TGI in experiment [1], in experiment [2], in experiment [3], in experiment [4], in experiment [5] and in experiment [8] was > 100 µM in each case. For the same compound, the TGI in experiment [9], in [10], in experiment [11], in [12], in experiment [13] and in experiment [14] was > 100 µM in each case. Besides, the TGI in experiment [16], in experiment [19], in [17] and in experiment [18] was > 100 µM each time.

Consider `CSc1ccc2c(cc1=O)C(NC(=O)c1ccc(OC(C)=O)cc1)CCc1cc(O)c(O)c(O)c1-2` (centres undefined), for which the TGI is > 100 µM in experiment [1]; 44 µM in experiment [2]; > 100 µM in experiment [3]; 31.1 µM in experiment [4]; 34.9 µM in [5]; > 100 µM in [6]. For the same compound, the TGI in experiment [10] was found to be 30.7 µM; in experiment [11], 67.7 µM; in [12], 50.4 µM; in experiment [13], 28.8 µM; in experiment [14], 22 µM; in experiment [15], 35.3 µM. Further, the TGI is 40.1 µM in experiment [16], 35.3 µM in experiment [19], 39 µM in [17] and 38.9 µM in experiment [18].

Regarding `COc1cc(C(C)c2cc3c(cc2OCCCCOc2cc4c(cc2C(C)c2cc(OC)c(OC)c(OC)c2)OCO4)OCO3)cc(OC)c1OC` (centres undefined), the TGI in [1], in experiment [2], in experiment [3], in experiment [4], in experiment [5] and in experiment [6] was > 100 µM in each case. Besides, the TGI was > 100 µM in [8]; > 100 µM in experiment [9]; 99.4 µM in [10]; > 100 µM in experiment [11]; > 100 µM in experiment [12]; > 100 µM in experiment [14]. The TGI in [15] was 91.3 µM; in [16] it was 55.4 µM; in experiment [19], > 100 µM; in experiment [17], > 100 µM; in experiment [18] it was > 100 µM.

Take `COc1ccc(C(C2C(=O)N(C)C(=O)N(C)C2=O)C(F)(F)C(=O)N(C)C)cc1` (centres undefined): the TGI in experiment [1], in experiment [2], in experiment [3], in experiment [4], in experiment [5] and in [6] was > 100 µM in each case. For the same compound, the TGI in experiment [7], in experiment [9], in experiment [10], in experiment [11], in [12] and in [14] was > 100 µM in each case. The TGI in experiment [15], in [16], in experiment [17] and in [18] was > 100 µM in each case.

Consider `CCn1c(=O)ccc2ccc(N(CCO)CCO)nc21`, for which the TGI in experiment [1], in experiment [2], in experiment [3], in experiment [4], in experiment [5] and in experiment [6] was > 100 µM in each case. Moreover, the TGI in experiment [8], in experiment [10], in [11], in experiment [12], in experiment [13] and in [14] was > 100 µM each time. Moreover, the TGI in experiment [15], in [19], in [17] and in [18] was > 100 µM each time.

`C=C(C)[C@@]1(O)CCC[C@H]1NC(=O)OC(C)(C)C`: the TGI in experiment [1], in experiment [2], in experiment [3], in experiment [4], in experiment [5] and in experiment [6] was > 100 µM each time. Also, the TGI in [7], in [8], in experiment [9], in experiment [10], in experiment [11] and in [12] was > 100 µM in each case. The TGI in [13], in experiment [14], in [15], in [17] and in [18] was > 100 µM throughout.

Take `O=C1c2nn(-c3ccccc3)nc2C(c2ccccc2)N1c1ccccc1` (centres undefined): the TGI in experiment [1] was > 100 µM; in experiment [2], > 100 µM; in experiment [3], > 100 µM; in experiment [4], > 100 µM; in [5] it was > 100 µM; in experiment [6], 96.6 µM. Also, the TGI in experiment [8], in [9], in experiment [10], in [11], in experiment [12] and in experiment [13] was > 100 µM throughout. Moreover, the TGI in [14], in [15], in experiment [16], in experiment [19], in [17] and in [18] was > 100 µM each time.
